Measured values as given in patent publication US20100130516A1, “PURINYL DERIVATIVES AND THEIR USE AS POTASSIUM CHANNEL MODULATORS” (NeuroSearch A/S, priority 2007, published 2010).

Molecular target: T1, hSK3 channels (Homo sapiens, UniProt Q9UGI6)
T1 construct: expressed in transfected cells; host or cells: HEK293
Experiment: Whole-cell patch-clamp recording of ionic current through SK channels (subtype 3)
Assay type: cell-based
Settings: HEK293 cells expressing hSK3 channels
Method: The ionic current through small-conductance Ca^2+-activated K^+ channels (SK channels, subtype 3) is recorded using the whole-cell configuration of the patch-clamp technique in a classic patch-clamp set-up using HEK293 tissue culture cells expressing hSK3 channels as described in e.g. WO 2006/100212.
The SC100 value determined is defined as the Stimulating Concentration required for increasing the baseline current by 100%. The below SC100 value is an indication of the SK3 activating properties of the compound of the invention.

SMILES: Cc1ccn(-c2nc(Nc3ccc(F)c(F)c3)c3ncn(C)c3n2)n1 [Compound 5.1, (3,4-Difluoro-phenyl)-[9-methyl-2-(3-methyl-pyrazol-1-yl)-9H-purin-6-yl]-amine]
- SC100 (Stimulating Concentration required for increasing the baseline current by 100%): 0.04 µM
